Assay results reported in EP4477653A1 (Perha Pharmaceuticals, priority 2023, dated 2024).
Where two headings read alike, the source gives them in different places.

Assays:
[1] = target: T1, human recombinant A3AR (expressed in HEK-293 cells) (Homo sapiens, UniProt P0DMS8); experiment: Adenosine receptors antagonism assay (Eurofins), [125I]-AB-MECA radioligand competition; format: binding
T1 construct: host or cells: HEK-293 cells
T1 sequence (P0DMS8 1-318): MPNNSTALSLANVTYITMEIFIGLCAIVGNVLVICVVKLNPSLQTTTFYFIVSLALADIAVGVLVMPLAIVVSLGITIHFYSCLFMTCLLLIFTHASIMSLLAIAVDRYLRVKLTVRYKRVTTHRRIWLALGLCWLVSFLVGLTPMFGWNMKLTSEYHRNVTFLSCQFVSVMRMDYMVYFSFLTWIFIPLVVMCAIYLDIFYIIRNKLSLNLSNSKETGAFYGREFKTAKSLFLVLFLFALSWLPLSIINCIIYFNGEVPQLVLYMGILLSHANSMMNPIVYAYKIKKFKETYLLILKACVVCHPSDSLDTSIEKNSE
Experimental: Assays were carried out at r.t. for 120 min. Compounds were initially tested at three concentrations (0.01, 0.1, 1 µM). […] IC50 values, which is the concentration causing a half-maximal inhibition of control specific binding, and Hill coefficients (nH) were determined by non-linear regression analysis of the competition curves generated with mean replicate values using Hill equation curve fitting. The inhibition constants (Ki) were calculated using the Cheng Prusoff equation.

LogD (HPLC) = format: physicochemical; conditions: by HPLC; Table 2
[2] = [125I]-AB-MECA 0.15 nM, r.t., 120 min; IC50 from dose-response curves; read-out: Potency Class A3AR

Compound	IC50 [1, 2]	chromatographic logD (LogD (HPLC))	IC50 ([1]; read-out: Potency Class A3AR; [125I]-AB-MECA 0.15 nM, r.t., 120 min; IC50 from dose-response curves)
CCC(CC)CNc1cc(NCc2ccccc2)c2nnc(C(C)C)n2n1 [compound 126, N8-benzyl-N6-(2-ethylbutyl)-3-isopropyl-[1,2,4]triazolo[4,3-b]pyridazine-6,8-diamine]	1 to 10 nM	4.42	–
CC(C)c1nnc2c(NCc3ccccc3)cc(NC3CCC3)nn12 [compound 117, N8-benzyl-N6-cyclobutyl-3-isopropyl-[1,2,4]triazolo[4,3-b]pyridazine-6,8-diamine]	10 to 100 nM	3.47	–
CC(C)c1nnc2c(NCc3ccccc3)cc(NC3CCc4ccccc43)nn12 (racemic) [compound 146, N8-benzyl-N6-indan-1-yl-3-isopropyl-[1,2,4]triazolo[4,3-b]pyridazine-6,8-diamine]	10 to 100 nM	4.1	–
CC(C)c1nnc2c(NCc3ccccc3)cc(Nc3nccn3C)nn12 [compound 144, N8-benzyl-3-isopropyl-N6-(1-methylimidazol-2-yl)-[1,2,4]triazolo[4,3-b]pyridazine-6,8-diamine]	100 to 1000 nM	2.27	–
CC(C)c1nnc2c(NCc3ccccc3)cc(NCC3CCOCC3)nn12 [compound 125, N8-benzyl-3-isopropyl-N6-(tetrahydropyran-4-ylmethyl)-[1,2,4]triazolo[4,3-b]pyridazine-6,8-diamine]	100 to 1000 nM	2.74	–
CC(C)c1nnc2c(NCc3ccccc3)cc(NCC3CC3)nn12 [compound 122, N8-benzyl-N6-(cyclopropylmethyl)-3-isopropyl-[1,2,4]triazolo[4,3-b]pyridazine-6,8-diamine]	10 to 100 nM	3.33	–
CC(C)c1nnc2c(NCc3ccccc3)cc(NCC3CCC3)nn12 [compound 123]	–	3.86	10 to 100 nM
CC(C)c1nnc2c(NCc3ccccc3)cc(NCC3CCCCC3)nn12 [compound 124, N8-benzyl-N6-(cyclohexylmethyl)-3-isopropyl-[1,2,4]triazolo[4,3-b]pyridazine-6,8-diamine]	10 to 100 nM	4.6	–
CC(C)c1nnc2c(NCc3ccccc3)cc(NCCOc3ccccc3)nn12 [compound 128, N8-benzyl-3-isopropyl-N6-(2-phenoxyethyl)-[1,2,4]triazolo[4,3-b]pyridazine-6,8-diamine]	100 to 1000 nM	3.68	–
Cc1cc(C)cc(CNc2cc(NCc3ccccc3)c3nnc(C(C)C)n3n2)c1 [compound 141, N8-benzyl-N6-[(3,5-dimethylphenyl)methyl]-3-isopropyl-[1,2,4]triazolo[4,3-b]pyridazine-6,8-diamine]	100 to 1000 nM	4.2	–
CC(C)c1nnc2c(NCc3ccccc3)cc(NCC3CCCO3)nn12 (racemic) [compound 142, N8-benzyl-3-isopropyl-N6-(tetrahydrofuran-2-ylmethyl)-[1,2,4]triazolo[4,3-b]pyridazine-6,8-diamine]	100 to 1000 nM	2.87	–
CC(C)c1nnc2c(NCc3ccccc3)cc(NC3CCCCC3)nn12 [compound 119, N8-benzyl-N6-cyclohexyl-3-isopropyl-[1,2,4]triazolo[4,3-b]pyridazine-6,8-diamine]	10 to 100 nM	4.17	–
CC(C)c1nnc2c(NCc3ccccc3)cc(NC3Cc4ccccc4C3)nn12 [compound 138, N8-benzyl-N6-indan-2-yl-3-isopropyl-[1,2,4]triazolo[4,3-b]pyridazine-6,8-diamine]	10 to 100 nM	4.08	–
CC(C)c1nnc2c(NCc3ccccc3)cc(NC34CC5CC(CC(C5)C3)C4)nn12 [compound 137, N6-(1-adamantyl)-N8-benzyl-3-isopropyl-[1,2,4]triazolo[4,3-b]pyridazine-6,8-diamine]	100 to 1000 nM	5.02	–
CC(C)c1nnc2c(NCc3ccccc3)cc(NCCc3ccccc3)nn12 [compound 127, N8-benzyl-3-isopropyl-N6-(2-phenylethyl)-[1,2,4]triazolo[4,3-b]pyridazine-6,8-diamine]	10 to 100 nM	3.78	–
CC(C)c1nnc2c(NCc3ccccc3)cc(NCc3ccccc3)nn12 [compound 130, N6,N8-dibenzyl-3-isopropyl-[1,2,4]triazolo[4,3-b]pyridazine-6,8-diamine]	1 to 10 nM	3.5	–
c1ccc(CNc2cc(NC3CC4(CCC4)C3)nn3c(C4CC4)nnc23)nc1 [compound 205, 3-cyclopropyl-N8-(pyridin-2-ylmethyl)-N6-(spiro[3.3]heptan-2-yl)-[1,2,4]triazolo[4,3-b]pyridazine-6,8-diamine]	1 to 10 nM	–	–
CC[C@@H](CO)Nc1cc(NCc2ccccc2)c2nnc(C(C)C)n2n1 [compound 2, (2S)-2-[[8-(benzylamino)-3-isopropyl-[1,2,4]triazolo[4,3-b]pyridazin-6-yl]amino]butan-1-ol]	10 to 100 nM	–	–

Compound	IC50 [1, 2]	chromatographic logD (LogD (HPLC))	IC50 ([1]; read-out: Potency Class A3AR; [125I]-AB-MECA 0.15 nM, r.t., 120 min; IC50 from dose-response curves)
CCC(CC)Nc1cc(NC(=O)Cc2ccccc2)c2nnc(C(C)C)n2n1 [compound 98, N-[6-(1-ethylpropylamino)-3-isopropyl-[1,2,4]triazolo[4,3-b]pyridazin-8-yl]-2-phenyl-acetamide]	< 1 nM	–	–
CCC(CC)Nc1cc(NCc2ccc(O)cc2)c2nnc(C(C)C)n2n1 [compound 42, 4-[[[6-(1-ethylpropylamino)-3-isopropyl-[1,2,4]triazolo[4,3-b]pyridazin-8-yl]amino]methyl]phenol]	1 to 10 nM	–	–
CCC(CC)Nc1cc(N2CCc3ccccc3C2)c2nnc(C(C)C)n2n1 [compound 80, 8-(3,4-dihydro-1H-isoquinolin-2-yl)-N-(1-ethylpropyl)-3-isopropyl-[1,2,4]triazolo[4,3-b]pyridazin-6-amine]	1 to 10 nM	–	–
COCCCNc1cc(NCc2ccccc2O)c2nnc(C(C)C)n2n1 [compound 39, 2-[[[3-isopropyl-6-(3-methoxypropylamino)-[1,2,4]triazolo[4,3-b]pyridazin-8-yl]amino]methyl]phenol]	10 to 100 nM	–	–
CC[C@H](CO)Nc1cc(NCc2ccccn2)c2nnc(C3CC3)n2n1 [compound 211, (R)-2-((3-cyclopropyl-8-((pyridin-2-ylmethyl)amino)-[1,2,4]triazolo[4,3-b]pyridazin-6-yl)amino)butan-1-ol]	10 to 100 nM	–	–
CCC(C)Nc1cc(NCc2ccccn2)c2nnc(C3CC3)n2n1 (racemic) [compound 193, N6-(sec-butyl)-3-cyclopropyl-N8-(pyridin-2-ylmethyl)-[1,2,4]triazolo[4,3-b]pyridazine-6,8-diamine]	1 to 10 nM	–	–
CCC(CC)Nc1cc(NCc2ccc(N)cc2)c2nnc(C(C)C)n2n1 [compound 75, N8-[(4-aminophenyl)methyl]-N6-(1-ethylpropyl)-3-isopropyl-[1,2,4]triazolo[4,3-b]pyridazine-6,8-diamine]	1 to 10 nM	–	–
CC(C)c1nnc2c(NCCc3ccccn3)cc(NC3CCCC3)nn12 [compound 165, N6-cyclopentyl-3-isopropyl-N8-[2-(2-pyridyl)ethyl]-[1,2,4]triazolo[4,3-b]pyridazine-6,8-diamine]	1 to 10 nM	–	–
COCCCNc1cc(NCc2ccccc2)c2nnc(C)n2n1 [compound 32, N8-benzyl-N6-(3-methoxypropyl)-3-methyl-[1,2,4]triazolo[4,3-b]pyridazine-6,8-diamine]	100 to 1000 nM	–	–
CCC(CC)Nc1cc(NCCc2ccccn2)c2nnc(C(C)C)n2n1 [compound 83, N6-(1-ethylpropyl)-3-isopropyl-N8-[2-(2-pyridyl)ethyl]-[1,2,4]triazolo[4,3-b]pyridazine-6,8-diamine]	< 1 nM	–	–
CC[C@@H](CO)Nc1cc(NCc2ccc(-c3ccncc3)cc2)c2nnc(C(C)C)n2n1 [compound 103, (2S)-2-[[3-isopropyl-8-[[4-(4-pyridyl)phenyl]methylamino]-[1,2,4]triazolo[4,3-b]pyridazin-6-yl]amino]butan-1-ol]	10 to 100 nM	–	–
CCC(CC)Nc1cc(Nc2ccccc2)c2nnc(C3CC3)n2n1 [compound 171, 3-cyclopropyl-N6-(1-ethylpropyl)-N8-phenyl-[1,2,4]triazolo[4,3-b]pyridazine-6,8-diamine]	< 1 nM	–	–
CCC(CC)Nc1cc(Nc2cccc(OC)n2)c2nnc(C3CC3)n2n1 [compound 183, 3-cyclopropyl-N8-(6-methoxypyridin-2-yl)-N6-(pentan-3-yl)-[1,2,4]triazolo[4,3-b]pyridazine-6,8-diamine]	< 1 nM	–	–
CCCCNc1cc(NCc2ccccn2)c2nnc(C3CC3)n2n1 [compound 191, N6-butyl-3-cyclopropyl-N8-(pyridin-2-ylmethyl)-[1,2,4]triazolo[4,3-b]pyridazine-6,8-diamine]	1 to 10 nM	–	–
CCC(CC)Nc1cc(Nc2ccccn2)c2nnc(C3CC3)n2n1 [compound 172, 3-cyclopropyl-N6-(1-ethylpropyl)-N8-(2-pyridyl)-[1,2,4]triazolo[4,3-b]pyridazine-6,8-diamine]	< 1 nM	–	–
CC[C@@H](CO)Nc1cc(NCc2ccc(-c3ccccc3)cc2)c2nnc(C(C)C)n2n1 [compound 102, (2S)-2-[[3-isopropyl-8-[(4-phenylphenyl)methylamino]-[1,2,4]triazolo[4,3-b]pyridazin-6-yl]amino]butan-1-ol]	10 to 100 nM	–	–
CC(C)c1nnc2c(NCc3ccccc3)cc(N[C@H]3CC[C@H](O)CC3)nn12 [(135), racemic trans-4-[[8-(benzylamino)-3-isopropyl-[1,2,4]triazolo[4,3-b]pyridazin-6-yl]amino]cyclohexanol]	–	2.22	–
